# Measurements taken from patent US20060069132A1, “Azolecarboxamide herbicides” (priority 2004, published 2006).
# What was measured:
# barnyardgrass = assay: Test A pre-/postemergence herbicide test; assay type: in vivo, Echinochloa crus-galli
# In short: (§1)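 Plants are held in greenhouse about ten days after treatment, then compared with untreated controls and scored 0 (no effect) to 100 (complete control). Preemergence dosing is a directed soil spray on sown sandy loam; postemergence dosing is spray to runoff at 2–10 cm height.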
# large crabgrass = assay: Test A pre-/postemergence herbicide test; assay type: in vivo, Digitaria sanguinalis
# In short: as §1
# velvetleaf [1] = assay: Test B pre-/postemergence herbicide test; assay type: in vivo, Abutilon theophrasti; conditions: for Velvetleaf plant response rating: postemergence, visual rating
# In short: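 Response was scored visually 13 to 15 days after treatment against untreated greenhouse controls, 0 meaning no effect and 100 complete control. Formulations (solvent mixture plus surfactant) went onto soil after planting, onto foliage of 1- to 4-leaf plants, and onto 2-leaf plants in a flooded paddy set including rice and barnyardgrass.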
# Surinam grass = assay: Test C pre-/postemergence herbicide test; assay type: in vivo, Urochloa decumbens; conditions: for Plant response rating, Surinam Grass / Plant response rating (0 = no effect, 100 = complete control), Surinam Grass: preemergence; for Surinam Grass plant response rating: Preemergence, 500 g ai/ha, scale 0 to 100, 0 no effect, 100 complete control
# In short: (§2)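 Greenhouse-grown plants were evaluated visually 12 to 14 days after treatment, with 100 meaning complete control and 0 no effect. Application was preemergence, or postemergence at 2 to 18 cm.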
# corn = assay: Test C pre-/postemergence herbicide test; assay type: in vivo, Zea mays; conditions: for Plant response rating, Corn / Plant response rating (0 = no effect, 100 = complete control), Corn: preemergence; for Corn plant response rating: Preemergence, 500 g ai/ha, scale 0 to 100, 0 no effect, 100 complete control
# In short: as §2
# kochia = assay: Test C pre-/postemergence herbicide test; assay type: in vivo, Kochia scoparia; conditions: for Plant response rating, Kochia / Plant response rating (0 = no effect, 100 = complete control), Kochia: preemergence; for Kochia plant response rating: Preemergence, 500 g ai/ha, scale 0 to 100, 0 no effect, 100 complete control
# In short: as §2
# morningglory = assay: Test C pre-/postemergence herbicide test; assay type: in vivo, Ipomoea coccinea; design: key to Plant response rating, Morningglory: 0 = no effect, 100 = complete control; conditions: for Plant response rating, Morningglory / Plant response rating (0 = no effect, 100 = complete control), Morningglory: preemergence; for Morningglory plant response rating: Preemergence, 500 g ai/ha, scale 0 to 100, 0 no effect, 100 complete control
# In short: as §2
# velvetleaf [2] = assay: Test C pre-/postemergence herbicide test; assay type: in vivo, Abutilon theophrasti; conditions: for Plant response rating, Velvetleaf: preemergence; for Velvetleaf plant response rating: Preemergence, 500 g ai/ha, scale 0 to 100, 0 no effect, 100 complete control
# In short: as §2
# [3] = system: smallflower umbrella sedge; assay: Test C flooded paddy test; assay type: in vivo, Cyperus difformis; conditions: for Plant response rating, Sedge, Umbrella: 500 g ai/ha, visual rating after 12 to 14 days
# [4] = Postemergence, 500 g ai/ha, 0 to 100 scale, 0 no effect, 100 complete control
# [5] = Postemergence, 2000 g ai/ha, 0 to 100 scale, 0 no effect, 100 complete control
# [6] = Preemergence, 2000 g ai/ha, visual rating, 0 to 100 scale (0 no effect, 100 complete control)
# [7] = preemergence, 500 g ai/ha, visual injury, 0 to 100 scale (0 no effect, 100 complete control)
# [8] = 125 g ai/ha, scale 0 (no effect) to 100 (complete control)
# [9] = 125 g ai/ha, scale 0 (no effect) to 100 (complete control), visual, 12 to 14 days
# [10] = 62 g ai/ha, scale 0 to 100 (0 no effect, 100 complete control)
# [11] = 250 g ai/ha, scale of 0 to 100, 0 is no effect, 100 is complete control
# [12] = scale 0 to 100 (0 no effect, 100 complete control)
# [13] = Preemergence, 500 g ai/ha, visual rating, 0 to 100 scale (0 no effect, 100 complete control)
# [14] = Preemergence, 2000 g ai/ha, 0 to 100 scale, 0 no effect, 100 complete control
# [15] = Postemergence, 500 g ai/ha, visual rating after 13 to 15 days, scale 0 (no effect) to 100 (complete control)
# [16] = preemergence, 125 g ai/ha, 0 to 100 scale, 0 is no effect, 100 is complete control
# [17] = 250 g ai/ha, scale 0 to 100 (0 no effect, 100 complete control), visual, 12 to 14 days
# [18] = 125 g ai/ha, scale of 0 to 100, 0 is no effect, 100 is complete control
Compound,"Plant response rating, Barnyardgrass (barnyardgrass; [5])","Plant response rating, Crabgrass, Large (large crabgrass; [5])",Velvetleaf plant response rating (velvetleaf [1]; [8]),"Plant response rating, Surinam Grass (Surinam grass; [9])",Surinam Grass plant response rating (Surinam grass),"Plant response rating, Corn (corn; [9])",Corn plant response rating (corn),"Plant response rating, Kochia (kochia; [9])",Kochia plant response rating (kochia),"Plant response rating, Morningglory (morningglory; [9])",Morningglory plant response rating (morningglory),"Plant response rating, Velvetleaf (velvetleaf [2]; [9])",Velvetleaf plant response rating (velvetleaf [2]),"Sedge, Umbrella plant response rating [3, 10]","Sedge, Umbrella plant response rating [3, 11]","Plant response rating, Sedge, Umbrella [3, 12]",Barnyardgrass plant response rating (barnyardgrass; [13]),Barnyardgrass plant response rating (barnyardgrass; [14]),"Crabgrass, Large plant response rating (large crabgrass; [13])","Crabgrass, Large plant response rating (large crabgrass; [14])",also measured
C=CCNC(=O)c1cccc(NC(=O)c2sc(C(C)(C)C)nc2CC)c1 [Compound 207],70,65,20,0,10,0,20,90,95,0,0,10,60,70,75,90,–,–,–,–,"Barnyardgrass plant response rating (barnyardgrass; [4]): 40; Barnyardgrass plant response rating (barnyardgrass; [6]): 80; Barnyardgrass plant response rating (barnyardgrass; [7]): 70; Crabgrass, Large plant response rating (large crabgrass; [4]): 20; Crabgrass, Large plant response rating (large crabgrass; [6]): 90; Crabgrass, Large plant response rating (large crabgrass; [7]): 95; Velvetleaf plant response rating (0 to 100 scale) (velvetleaf [1]; 125 g ai/ha, 0 = no effect, 100 = complete control, preemergence): 20; Plant response rating, Velvetleaf (velvetleaf [1]; 500 g ai/ha, visual rating 0-100, 0 no effect, 100 complete control, preemergence): 60; Velvetleaf plant response rating (velvetleaf [1]; 500 g ai/ha, scale 0 (no effect) to 100 (complete control)): 30; Plant response rating, Surinam Grass (Surinam grass; 62 g ai/ha, scale 0 to 100): 0; Plant response rating, Surinam Grass (Surinam grass; 250 g ai/ha, scale 0-100): 0; Plant response rating, Corn (corn; 62 g ai/ha, scale 0 to 100): 0; Plant response rating, Corn (corn; 250 g ai/ha, scale 0-100): 5; Plant response rating, Kochia (kochia; 62 g ai/ha, scale 0 to 100): 90; Plant response rating, Kochia (kochia; 250 g ai/ha, scale 0-100): 90; Plant response rating, Morningglory (morningglory; 62 g ai/ha, scale 0 to 100): 0; Plant response rating, Morningglory (morningglory; 250 g ai/ha, scale 0-100): 0; Plant response rating, Velvetleaf (velvetleaf [2]; 62 g ai/ha, scale 0 to 100): 0; Plant response rating, Velvetleaf (velvetleaf [2]; 250 g ai/ha, scale 0-100): 40; Sedge, Umbrella plant response rating ([3]; 125 g ai/ha, scale 0 to 100 (0 no effect, 100 complete control)): 75"
CCn1nc(C(C)(C)C)cc1C(=O)Nc1cccc2c1CCN(C1CC1)C2=O [Compound 64],75,60,10,5,50,0,30,20,60,0,0,30,60,0,35,75,55,85,70,100,"Plant response rating, Barnyardgrass (barnyardgrass; [4]): 30; Plant response rating, Crabgrass, Large (large crabgrass; [4]): 30; Plant response rating, Velvetleaf (velvetleaf [1]; [15]): 10; Plant response rating, Velvetleaf (velvetleaf [1]; [16]): 0; Plant response rating (0 = no effect, 100 = complete control), Surinam Grass (Surinam grass; 62 g ai/ha): 0; Plant response rating (0 = no effect, 100 = complete control), Corn (corn; 62 g ai/ha): 0; Plant response rating, Corn (corn; [17]): 0; Plant response rating (0 = no effect, 100 = complete control), Kochia (kochia; 62 g ai/ha): 0; Plant response rating (0 = no effect, 100 = complete control), Morningglory (morningglory; 62 g ai/ha): 0; Sedge, Umbrella plant response rating [3, 18]: 25"
CCOC(=O)c1cccc(NC(=O)c2cc(C(C)(C)C)nn2CC)c1C [Compound 88],100,95,30,20,95,5,60,85,100,0,20,0,50,0,80,80,75,90,45,100,"Barnyardgrass plant response rating (barnyardgrass; [4]): 85; Crabgrass, Large plant response rating (large crabgrass; [4]): 85; Plant response rating, Velvetleaf (velvetleaf [1]; [15]): 70; Plant response rating, Velvetleaf (velvetleaf [1]; [16]): 40; Plant response rating (0 = no effect, 100 = complete control), Surinam Grass (Surinam grass; 62 g ai/ha): 10; Plant response rating (0 = no effect, 100 = complete control), Corn (corn; 62 g ai/ha): 0; Plant response rating, Corn (corn; [17]): 5; Plant response rating (0 = no effect, 100 = complete control), Kochia (kochia; 62 g ai/ha): 0; Plant response rating (0 = no effect, 100 = complete control), Morningglory (morningglory; 62 g ai/ha): 0; Sedge, Umbrella plant response rating [3, 18]: 50"
CCCN1CCc2c(NC(=O)c3cc(C(C)(C)C)nn3CC)cccc2C1=O [Compound 65],75,60,10,0,50,0,20,70,90,0,10,0,60,0,75,80,55,70,95,100,"Plant response rating, Barnyardgrass (barnyardgrass; [4]): 45; Plant response rating, Crabgrass, Large (large crabgrass; [4]): 30; Plant response rating, Velvetleaf (velvetleaf [1]; [15]): 10; Plant response rating, Velvetleaf (velvetleaf [1]; [16]): 10; Plant response rating (0 = no effect, 100 = complete control), Surinam Grass (Surinam grass; 62 g ai/ha): 0; Plant response rating (0 = no effect, 100 = complete control), Corn (corn; 62 g ai/ha): 0; Plant response rating, Corn (corn; [17]): 10; Plant response rating (0 = no effect, 100 = complete control), Kochia (kochia; 62 g ai/ha): 10; Plant response rating (0 = no effect, 100 = complete control), Morningglory (morningglory; 62 g ai/ha): 0; Sedge, Umbrella plant response rating [3, 18]: 20"
